According to patent US12583841B2, “Tetrahydropyrrolocyclic compound and application thereof” (Breakthrough Pharmaceuticals Inc., priority 2021, dated 2026):

Legend:
[1] = Drug concentration in cerebrospinal fluid of Beagle dogs; type: in vivo; settings: male, po, Beagle dog, p.o. 5 mg/kg
Protocol: 2 healthy male Beagle dogs were selected, and after intragastric administration of the test compound at 5 mg/kg, cerebrospinal fluid samples were taken at 0.5 h, 2 h and 6 h after the administration, respectively. Quantitative analysis of all biological samples was carried out by LC-MS/MS method, and the WinNonlin™ Version 6.3 (Pharsight, Mountain View, CA) pharmacokinetic software was used to calculate the relevant pharmacokinetic parameters by the non-compartmental model linear logarithmic trapezoidal method. AUC0-last represents area under the plasma concentration-time curve from time zero to the last detectable concentration time point; p.o. represents oral; i.v. represents intravenous injection; T1/2 represents half-life; CL represents clearance rate; Vd represents apparent volume of distribution; Cmax represents peak concentration; Tmax represents time to peak; F % represents oral bioavailability.

[2] = molecular target: T1, OX1R (Homo sapiens, UniProt O43613); assay: FLIPR intracellular calcium antagonism test, HEK293-OX1R cells; type: cell-based; settings: Orexin A at EC70, read-out: hOXIR IC50
T1 construct: expressed in transfected cells
T1 sequence (O43613 1-425): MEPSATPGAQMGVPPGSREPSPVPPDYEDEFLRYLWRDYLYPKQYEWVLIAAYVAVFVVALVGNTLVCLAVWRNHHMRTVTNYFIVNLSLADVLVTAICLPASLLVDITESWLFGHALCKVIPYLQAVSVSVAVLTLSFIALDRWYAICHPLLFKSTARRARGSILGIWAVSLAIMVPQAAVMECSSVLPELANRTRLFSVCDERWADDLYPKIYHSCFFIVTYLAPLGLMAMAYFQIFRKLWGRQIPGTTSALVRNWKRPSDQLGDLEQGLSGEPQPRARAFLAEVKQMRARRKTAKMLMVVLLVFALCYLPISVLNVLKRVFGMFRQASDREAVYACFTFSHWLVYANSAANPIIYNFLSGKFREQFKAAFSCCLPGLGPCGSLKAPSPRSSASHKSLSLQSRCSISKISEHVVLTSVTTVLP
Protocol: The change of intracellular calcium signal was detected by FLIPR, and the antagonism of the compounds on OX1R and OX2R receptors was evaluated by using IC50 value of the compounds as an index.
• Cell lines: Transfected HEK293-OX1R and HEK293-OX2R stable cell lines • HEK293-OX1R cell culture medium (DMEM, Invitrogen #11960-044, 10% serum Gibco #10099141, L-Glutamine 1×, Gibco #25030, sodium pyruvate 1×, Gibco #11360, Geneticin 300 μg/mL, Gibco #10131) • HEK293-OX2R cell culture medium (DMEM, Invitrogen #11960-044, 10% serum Gibco #10099141, L-Glutamine 1×, Gibco #25030, sodium pyruvate 1×, Gibco #11360, Geneticin 300 μg/mL, Gibco #10131, Blasticin 2 μg/mL, Invitrogen #R21001)
Experimental Steps and Methods: • a) Cell seeding (HEK293-OX1R and HEK293-OX2R cells) • 1) preheating the culture medium, trypsin and DPBS under water bath at 37° C.; pipetting and removing the medium of cell culture and washing same with 10 mL of DPBS; • 2) adding the preheated trypsin to a culture flask, rotating the culture flask so that the trypsin evenly covered the culture flask, and putting the culture flask in a 37° C., 5% CO2 incubator for digestion for 1-2 min; • 3) suspending the cells with 10-15 mL of medium for each T150 and centrifuging at 800 rpm for 5 min; resuspending the cells with 10 mL of medium, pipetting 1 mL of the cell suspension and counting with Vi-cell; • 4) diluting OX1R cells with medium to 5×10^5 cells/mL, and diluting OX2R cells with medium to 4×10^5 cells/mL, and adding the diluted cells to 384 plate (Greiner.781946) with a multi-channel pipette (50 μL/well, 25000 cells/well for OX1R cells, 20000 cells/well for OX2R cells); placing the cell plate in a 37° C., 5% CO2 incubator overnight. • b) Compound loading: • 1) diluting the compound to 20 mM with DMSO, 3-fold dilution, 8 gradients, duplicate wells, and adding same to a compound plate with an Echo liquid handler; then adding 20 μL of buffer to maintain the final concentration of DMSO of 0.1%. • c) FLIPR experiment: • 1) washing off the cell culture medium in the 384 plate with a vacuum pump, adding […] Direct fluorescent dye, incubating in 37° C., 5% CO2 incubator for 1 h, and balancing at room temperature for another 10 min. • 2) EC50 test: manually diluting Orexin A on ice, 3-fold dilution, 8 gradients, duplicate wells; preparing a DMSO plate and keep the DMSO concentration to be 0.5%; putting the cell plate, OrexinA plate, and DMSO plate in FLIPR respectively, and reading the fluorescence value. • 3) calculating the EC70 value based on the EC50 value of Orexin A; preparing a 5×EC70 solution, adding same to 384 compound plate with a multi-channel pipette, and storing on ice; • 4) putting the compound plate, 5×EC70 plate, cell plate, and FLIPR tip in sequence in FLIPR, running the program, and reading the fluorescence value. • d) Data analyzing: using Prism5.0 to analyze the data, and calculating the IC50 value of the compound.

## COc1ccc(-n2nccn2)c(C(=O)N2C(c3nc4ccc(OC)cc4[nH]3)CC3CC32)c1 (stereo not shown) [Compound 8]
[1]; 0.5 h
  concentration at 0.5 h: 1160 nM
[1]; 2 h
  concentration at 2 h: 773 nM
[1]; 6 h
  concentration at 6 h: 110 nM
[2]
  IC50: 1790 nM
